According to patent US6706663B2, “Herbicidal 3-heterocyclic substituted benzisothiazole and benzisoxazole compounds” (Wyeth, priority 2000, dated 2004):

Experiments:
[1] = tested on: GALAP (Galium aparine); test: Preemergence herbicidal evaluation; format: in vivo; conditions: rated 4-5 weeks after treatment
Outline: (§1)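 Rating 0–9, visual, vs control; 4–5 wk after spraying seeded cups with compound in aq. acetone; conventional greenhouse care.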

[2] = tested on: ORYSAT (Rice, Tebonnet); test: Postemergence herbicidal evaluation; format: in vivo, Oryza sativa, (L.) Tebonnet; conditions: postemergence
Outline: (§2)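 Visual 0–9 injury scores versus control plants, covering stand, vigour, malformation, size, chlorosis and general appearance, taken four to five weeks post-spray and averaged over replicate tests. Plants were sprayed at roughly two weeks old and held on greenhouse benches.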

[3] = tested on: ORYSAT (Rice, Tebonnet); test: Preemergence herbicidal evaluation; format: in vivo, Oryza sativa, (L.) Tebonnet; conditions: rated 4-5 weeks after treatment
[4] = tested on: CASOB (Cassia obtusifolia); test: Preemergence herbicidal evaluation; format: in vivo, L.; conditions: rated 4-5 weeks after treatment
Outline: as §1

[5] = tested on: CHEAL (Chenopodium album); test: Preemergence herbicidal evaluation; format: in vivo, L.; conditions: rated 4-5 weeks after treatment
Outline: as §1

[6] = tested on: AMBEL (Ambrosia artemisifolia); test: Preemergence herbicidal evaluation; format: in vivo, L.; conditions: rated 4-5 weeks after treatment
Outline: as §1

[7] = tested on: ZEAMX (Corn, Field); test: Postemergence herbicidal evaluation; format: in vivo, Zea mays, L.; conditions: postemergence
Outline: as §2

[8] = tested on: SETVI (Setaria viridis); test: Postemergence herbicidal evaluation; format: in vivo, (L.) Beau; conditions: postemergence
Outline: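 Seedlings grown about two weeks were sprayed with compound in 50/50 acetone/water containing 0.5% TWEEN 20, at about 0.0040 to 1.000 kg/ha via nozzle at 40 psi. Plants were kept under greenhouse conditions and visually rated on a 0-9 scale versus control four to five weeks after treatment; replicate tests averaged.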

[9] = tested on: IPOHE (Ipomoea hederacea); test: Postemergence herbicidal evaluation; format: in vivo, (L.) Jacq.; conditions: postemergence
Outline: as §2

[10] = tested on: TRZAWR (Wheat, Winter, cv Riband); test: Preemergence herbicidal evaluation; format: in vivo, Triticum aestivum; conditions: rated 4-5 weeks after treatment
Outline: as §1

[11] = tested on: ECHCG (Echinochloa crus-galli); test: Postemergence herbicidal evaluation; format: in vivo, (L.) Beau; conditions: postemergence
Outline: as §2

[12] = tested on: SETVI (Setaria viridis); test: Preemergence herbicidal evaluation; format: in vivo, (L.) Beau; conditions: rated 4-5 weeks after treatment
Outline: as §1

[13] = tested on: ECHCG (Echinochloa crus-galli); test: Preemergence herbicidal evaluation; format: in vivo, (L.) Beau; conditions: rated 4-5 weeks after treatment
Outline: as §1

[14] = tested on: GLXMAW (Soybean, Williams); test: Postemergence herbicidal evaluation; format: in vivo, Glycine max, (L.) Merr. cv Williams; conditions: postemergence
Outline: as §2

[15] = tested on: ABUTH (Abutilon theophrasti); test: Preemergence herbicidal evaluation; format: in vivo, Medic.; conditions: rated 4-5 weeks after treatment
[16] = tested on: TRZAWR (Wheat, Winter, cv Riband); test: Postemergence herbicidal evaluation; format: in vivo, Triticum aestivum; conditions: postemergence
Outline: as §2

[17] = tested on: MOOVA (Monochoria vaginalis); test: Flooded paddy, preemergence weed control; format: in vivo, Presl.; conditions: rated 3-4 weeks after treatment, 0-9 rating scale
Outline: (§3)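 In this preemergence paddy assay, weed seeds or organs are sown at up to 0.5 cm in silt loam and covered by 1.5–3 cm of water for the full test period. After treatment the pots are kept in a greenhouse, and herbicidal effect is rated 0-9 visually against a control.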

[18] = tested on: ECHORC (Echinochloa oryzoides); test: Flooded paddy, preemergence weed control; format: in vivo, Echinochloa oryzoides (Ard.) Fritsch.; conditions: rated 3-4 weeks after treatment, 0-9 rating scale
Outline: as §3

## Cn1c(C(F)(F)F)cc(=O)n(-c2ccc3snc(C4OCC(CO)O4)c3c2)c1=O (stereo not shown) [Compound 73, 3-[3-[4-(hydroxymethyl)-1,3-dioxolan-2-yl]-1,2-benzisothiazol-5-yl]-1-methyl-6-(trifluoromethyl)uracil]
[1]; Rate 0.0620 kg/ha
  Preemergence herbicidal rating GALAP: 8.0
[1]; Rate 0.1250 kg/ha
  Preemergence herbicidal rating GALAP: 8.0
[1]; Rate 0.2500 kg/ha
  Preemergence herbicidal rating GALAP: 9.0
[2]; rate 0.0320 kg/ha
  ORYSAT herbicidal rating: 3.0
[2]; rate 0.0620 kg/ha
  ORYSAT herbicidal rating: 4.0
[3]; Rate 0.0620 kg/ha
  Preemergence herbicidal rating ORYSAT: 6.0
[3]; Rate 0.1250 kg/ha
  Preemergence herbicidal rating ORYSAT: 7.0
[3]; Rate 0.2500 kg/ha
  Preemergence herbicidal rating ORYSAT: 8.0
[4]; Rate 0.0620 kg/ha
  Preemergence herbicidal rating CASOB: 2.5
[4]; Rate 0.1250 kg/ha
  Preemergence herbicidal rating CASOB: 6.0
[4]; Rate 0.2500 kg/ha
  Preemergence herbicidal rating CASOB: 8.0
[5]; Rate 0.0620 kg/ha
  Preemergence herbicidal rating CHEAL: 9.0
[5]; Rate 0.1250 kg/ha
  Preemergence herbicidal rating CHEAL: 9.0
[5]; Rate 0.2500 kg/ha
  Preemergence herbicidal rating CHEAL: 9.0
[6]; Rate 0.0620 kg/ha
  Preemergence herbicidal rating AMBEL: 8.5
[6]; Rate 0.1250 kg/ha
  Preemergence herbicidal rating AMBEL: 9.0
[6]; Rate 0.2500 kg/ha
  Preemergence herbicidal rating AMBEL: 9.0
[7]; rate 0.0320 kg/ha
  ZEAMX herbicidal rating: 4.5
[7]; rate 0.0620 kg/ha
  ZEAMX herbicidal rating: 5.0
[8]; rate 0.0320 kg/ha
  SETVI herbicidal rating: 4.0
[8]; rate 0.0620 kg/ha
  SETVI herbicidal rating: 8.0
[9]; rate 0.0320 kg/ha
  IPOHE herbicidal rating: 9.0
[9]; rate 0.0620 kg/ha
  IPOHE herbicidal rating: 9.0
[10]; Rate 0.0620 kg/ha
  Preemergence herbicidal rating TRZAWR: 4.0
[10]; Rate 0.1250 kg/ha
  Preemergence herbicidal rating TRZAWR: 6.0
[10]; Rate 0.2500 kg/ha
  Preemergence herbicidal rating TRZAWR: 8.0
[11]; rate 0.0320 kg/ha
  ECHCG herbicidal rating: 2.0
[11]; rate 0.0620 kg/ha
  ECHCG herbicidal rating: 3.0
[12]; Rate 0.0620 kg/ha
  Preemergence herbicidal rating SETVI: 9.0
[12]; Rate 0.1250 kg/ha
  Preemergence herbicidal rating SETVI: 9.0
[12]; Rate 0.2500 kg/ha
  Preemergence herbicidal rating SETVI: 9.0
[13]; Rate 0.0620 kg/ha
  Preemergence herbicidal rating ECHCG: 7.5
[13]; Rate 0.1250 kg/ha
  Preemergence herbicidal rating ECHCG: 9.0
[13]; Rate 0.2500 kg/ha
  Preemergence herbicidal rating ECHCG: 9.0
[14]; rate 0.0320 kg/ha
  GLXMAW herbicidal rating: 5.5
[14]; rate 0.0620 kg/ha
  GLXMAW herbicidal rating: 7.5
[15]; Rate 0.0620 kg/ha
  Preemergence herbicidal rating ABUTH: 9.0
[15]; Rate 0.1250 kg/ha
  Preemergence herbicidal rating ABUTH: 9.0
[15]; Rate 0.2500 kg/ha
  Preemergence herbicidal rating ABUTH: 9.0
[16]; rate 0.0320 kg/ha
  TRZAWR herbicidal rating: 3.5
[16]; rate 0.0620 kg/ha
  TRZAWR herbicidal rating: 4.0
[17]; rate 0.0080 kg/ha
  herbicidal rating, MOOVA: 0.0
[17]; rate 0.0320 kg/ha
  herbicidal rating, MOOVA: 0.0
[17]; rate 0.1250 kg/ha
  herbicidal rating, MOOVA: 9.0
[18]; rate 0.0080 kg/ha
  herbicidal rating, ECHORC: 0.0
[18]; rate 0.0320 kg/ha
  herbicidal rating, ECHORC: 0.0
[18]; rate 0.1250 kg/ha
  herbicidal rating, ECHORC: 7.0

## CC(C)C1COC(c2nsc3ccc(-n4c(=O)cc(C(F)(F)F)n(C)c4=O)cc23)=N1 (stereo not shown) [Compound 74, 3-[3-(4-isopropyl-2-oxazolin-2-yl)-1,2-benzisothiazol-5-yl]-1-methyl-6-(trifluoromethyl)uracil]
[1]; Rate 0.0620 kg/ha
  Preemergence herbicidal rating GALAP: 6.0
[1]; Rate 0.1250 kg/ha
  Preemergence herbicidal rating GALAP: 7.0
[1]; Rate 0.2500 kg/ha
  Preemergence herbicidal rating GALAP: 9.0
[2]; rate 0.0320 kg/ha
  ORYSAT herbicidal rating: 3.5
[2]; rate 0.0620 kg/ha
  ORYSAT herbicidal rating: 4.0
[3]; Rate 0.0620 kg/ha
  Preemergence herbicidal rating ORYSAT: 1.0
[3]; Rate 0.1250 kg/ha
  Preemergence herbicidal rating ORYSAT: 1.0
[3]; Rate 0.2500 kg/ha
  Preemergence herbicidal rating ORYSAT: 5.0
[4]; Rate 0.0620 kg/ha
  Preemergence herbicidal rating CASOB: 0.0
[4]; Rate 0.1250 kg/ha
  Preemergence herbicidal rating CASOB: 0.0
[4]; Rate 0.2500 kg/ha
  Preemergence herbicidal rating CASOB: 3.0
[5]; Rate 0.0620 kg/ha
  Preemergence herbicidal rating CHEAL: 9.0
[5]; Rate 0.1250 kg/ha
  Preemergence herbicidal rating CHEAL: 9.0
[5]; Rate 0.2500 kg/ha
  Preemergence herbicidal rating CHEAL: 9.0
[6]; Rate 0.0620 kg/ha
  Preemergence herbicidal rating AMBEL: 0.0
[6]; Rate 0.1250 kg/ha
  Preemergence herbicidal rating AMBEL: 6.0
[6]; Rate 0.2500 kg/ha
  Preemergence herbicidal rating AMBEL: 9.0
[7]; rate 0.0320 kg/ha
  ZEAMX herbicidal rating: 5.0
[7]; rate 0.0620 kg/ha
  ZEAMX herbicidal rating: 5.0
[8]; rate 0.0320 kg/ha
  SETVI herbicidal rating: 2.0
[8]; rate 0.0620 kg/ha
  SETVI herbicidal rating: 2.0
[9]; rate 0.0320 kg/ha
  IPOHE herbicidal rating: 7.0
[9]; rate 0.0620 kg/ha
  IPOHE herbicidal rating: 9.0
[10]; Rate 0.0620 kg/ha
  Preemergence herbicidal rating TRZAWR: 1.0
[10]; Rate 0.1250 kg/ha
  Preemergence herbicidal rating TRZAWR: 2.0
[10]; Rate 0.2500 kg/ha
  Preemergence herbicidal rating TRZAWR: 5.0
[11]; rate 0.0320 kg/ha
  ECHCG herbicidal rating: 2.0
[11]; rate 0.0620 kg/ha
  ECHCG herbicidal rating: 2.0
[12]; Rate 0.0620 kg/ha
  Preemergence herbicidal rating SETVI: 0.0
[12]; Rate 0.1250 kg/ha
  Preemergence herbicidal rating SETVI: 2.0
[12]; Rate 0.2500 kg/ha
  Preemergence herbicidal rating SETVI: 8.0
[13]; Rate 0.0620 kg/ha
  Preemergence herbicidal rating ECHCG: 0.0
[13]; Rate 0.1250 kg/ha
  Preemergence herbicidal rating ECHCG: 2.0
[13]; Rate 0.2500 kg/ha
  Preemergence herbicidal rating ECHCG: 6.0
[14]; rate 0.0320 kg/ha
  GLXMAW herbicidal rating: 5.5
[14]; rate 0.0620 kg/ha
  GLXMAW herbicidal rating: 7.0
[15]; Rate 0.0620 kg/ha
  Preemergence herbicidal rating ABUTH: 3.0
[15]; Rate 0.1250 kg/ha
  Preemergence herbicidal rating ABUTH: 7.0
[15]; Rate 0.2500 kg/ha
  Preemergence herbicidal rating ABUTH: 9.0
[16]; rate 0.0320 kg/ha
  TRZAWR herbicidal rating: 3.5
[16]; rate 0.0620 kg/ha
  TRZAWR herbicidal rating: 4.0
[17]; rate 0.0080 kg/ha
  herbicidal rating, MOOVA: 4.5
[17]; rate 0.0320 kg/ha
  herbicidal rating, MOOVA: 9.0
[17]; rate 0.1250 kg/ha
  herbicidal rating, MOOVA: 9.0
[18]; rate 0.0080 kg/ha
  herbicidal rating, ECHORC: 5.5
[18]; rate 0.0320 kg/ha
  herbicidal rating, ECHORC: 8.0
[18]; rate 0.1250 kg/ha
  herbicidal rating, ECHORC: 9.0
